Patent US8546579B2, “Bicycloheteroaryl compounds as P2X7 modulators and uses thereof” (Evotec (US) Inc., priority 2006, dated 2013)

target: T1, P2X7 receptor (Homo sapiens, UniProt Q99572); assay: IL-1β release assay in differentiated THP-1 cells stimulated with BzATP (Example 9); format: cell-based; parameters: inhibition: dose or concentration left out as unconfirmed; conditions: 0.1 μM compound; differentiated THP-1 cells, BzATP 250 uM; "*" class symbols; read-out: IL-1β % Inhib. ("*" symbols: at 0.1 μM)
T1 construct: host or cells: THP-1 cells differentiated with LPS and IFN-γ
T1 sequence (Q99572 1-595): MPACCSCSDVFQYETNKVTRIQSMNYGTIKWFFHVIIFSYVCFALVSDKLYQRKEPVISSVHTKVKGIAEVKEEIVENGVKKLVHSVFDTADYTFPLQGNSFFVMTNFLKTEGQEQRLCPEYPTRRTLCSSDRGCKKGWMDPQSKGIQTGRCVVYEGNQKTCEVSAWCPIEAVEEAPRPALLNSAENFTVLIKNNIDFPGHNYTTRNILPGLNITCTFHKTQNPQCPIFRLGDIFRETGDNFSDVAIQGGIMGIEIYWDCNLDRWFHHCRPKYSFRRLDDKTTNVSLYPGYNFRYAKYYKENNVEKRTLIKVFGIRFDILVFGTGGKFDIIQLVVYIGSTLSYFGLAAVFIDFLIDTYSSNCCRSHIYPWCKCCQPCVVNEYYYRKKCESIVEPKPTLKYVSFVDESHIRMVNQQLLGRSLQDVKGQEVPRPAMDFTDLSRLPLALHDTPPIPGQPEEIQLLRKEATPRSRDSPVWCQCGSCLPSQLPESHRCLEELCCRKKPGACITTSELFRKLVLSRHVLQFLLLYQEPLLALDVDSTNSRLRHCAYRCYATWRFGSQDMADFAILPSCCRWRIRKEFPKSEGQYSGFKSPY
Summary of the method: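 THP-1 cells differentiated 16 h with LPS and IFN-γ (100 ng/mL each), re-primed 2 h with LPS, then compound-pretreated 30 min before 250 uM BzATP for 45 min. Supernatant IL-1β quantified by ELISA; background-adjusted percent inhibition fitted to four-parameter logistic for IC50.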

Work on `COc1ccc(CC(=O)Nc2cccc3c(=O)n(Cc4ccc(OC(F)(F)F)cc4)ccc23)cc1C` [Compound 1605] yielded an inhibition at 0.1 µM of 0 to 25%.

same assay, conditions: 0.1 μM compound; differentiated THP-1 cells, BzATP 250 uM; '*' class symbols; read-out: IL-1β % Inhib. (asterisk classes, 0.1 μM)

`COc1cccc(CCC(=O)Nc2cccc3c(=O)n(CCN4CCOCC4)ccc23)c1` [Compound 1041] and `CCOc1ccc(C(=O)Nc2cccc3c(=O)n(CCOC)ccc23)c(O)c1` [Compound 1059] fall in the same range of inhibition at 0.1 µM: 0 to 25% for the first, 0 to 25% for the second.

same assay, conditions: 0.1 μM compound; differentiated THP-1 cells, BzATP 250 uM; symbols * to ****; read-out: IL-1β % Inhib. (asterisk symbols: at 0.1 μM)

With `COc1ccc(CCC(=O)Nc2cccc3c(=O)n(Cc4cccnc4)ccc23)cc1` [Compound 1349] the inhibition at 0.1 µM was 0 to 25%.

same assay, conditions: 0.3 μM compound; differentiated THP-1 cells, BzATP 250 uM; "+" class symbols; read-out: IL-1β % Inhib. @ 0.3 μM

First: CO[C@@](C(=O)Nc1cccc2c(=O)n(CCN(C)C)ccc12)(c1ccccc1)C(F)(F)F [Compound 1615]
Second: CC(c1ccccn1)n1ccc2c(NC(=O)Cc3ccc(C(F)(F)F)c(F)c3)cccc2c1=O (stereo not shown) [Compound 1635]
The inhibition at 0.3 µM of the first is lower: 0 to 25% for the first, ≥ 76% for the second.

same assay, conditions: 0.3 μM compound; differentiated THP-1 cells, BzATP 250 uM; '+' class symbols; read-out: IL-1β % Inhib. @ 0.3 μM

`COCCn1ccc2c(NC(=O)Cc3cc(C)ccc3C)cccc2c1=O` [Compound 1066] and `Cc1ccc(C)c(C(=O)Nc2cccc3c(=O)n(CCN(C)C)ccc23)c1` [Compound 1142] fall in the same range of inhibition at 0.3 µM: 0 to 25% for the first, 0 to 25% for the second.

`O=C(CCc1ccccc1Cl)Nc1cccc2c(=O)n(CCN3CCOCC3)ccc12` [Compound 1045] and `Cc1ccc(C(=O)Nc2cccc3c(=O)n(CCN4CCOCC4)ccc23)c(C)c1` [Compound 1193] fall in the same range of inhibition at 0.3 µM: 0 to 25% for the first, 0 to 25% for the second.

`COc1ccc(CCC(=O)Nc2cccc3c(=O)n(CC4CCOCC4)ccc23)cc1` [Compound 1095] and `O=C(CCCc1ccccc1)Nc1cccc2c(=O)n(CC3CCOCC3)ccc12` [Compound 1108] fall in the same range of inhibition at 0.3 µM: 0 to 25% for the first, 0 to 25% for the second.

`CN(C)CCn1ccc2c(NC(=O)c3cccc4c3OCCO4)cccc2c1=O` [Compound 1169] and `Cc1cccc(C(=O)Nc2cccc3c(=O)n(CC4CCOCC4)ccc23)c1C` [Compound 1086] fall in the same range of inhibition at 0.3 µM: 0 to 25% for the first, 0 to 25% for the second.

`CC(=O)OCCn1ccc2c(NC(=O)CC3CCN(C(=O)OC(C)(C)C)CC3)cccc2c1=O` [Compound 1011] and `CC(C)(C)c1ccc(C(=O)Nc2cccc3c(=O)n(CC4CCOCC4)ccc23)cc1` [Compound 1092] fall in the same range of inhibition at 0.3 µM: 0 to 25% for the first, 0 to 25% for the second.

`CC(C(=O)Nc1cccc2c(=O)n(CC3CCOCC3)ccc12)c1ccccc1` (stereo not shown) [Compound 1093] and `O=C(Cc1ccc2c(c1)OCO2)Nc1cccc2c(=O)n(CC3CCOCC3)ccc12` [Compound 1110] fall in the same range of inhibition at 0.3 µM: 0 to 25% for the first, 0 to 25% for the second.

`O=C(Nc1cccc2c(=O)n(Cc3cccnc3)ccc12)c1ccc(-c2ccccc2)o1` [Compound 1074] gave an inhibition at 0.3 µM of 0 to 25%.

same assay, conditions: 0.3 μM compound; differentiated THP-1 cells, BzATP 250 uM; symbols + to ++++; read-out: IL-1β % Inhib. @ 0.3 μM

`Cc1ccccc1CC(=O)Nc1cccc2c(=O)n(CCN3CCOCC3)ccc12` [Compound 1208] and `O=C(Cc1csc2ccccc12)Nc1cccc2c(=O)n(CCN3CCOCC3)ccc12` [Compound 1226] fall in the same range of inhibition at 0.3 µM: 0 to 25% for the first, 0 to 25% for the second.

First: CC(C)(C)Cn1ccc2c(NC(=O)C3C[C@@H]4CC[C@H]3C4)cccc2c1=O (stereo partly shown) [Compound 1277]
Second: Cc1cc(Cl)ccc1C(=O)Nc1cccc2c(=O)n(CC(C)(C)C)ccc12 [Compound 1269]
The inhibition at 0.3 µM of the first is higher: ≥ 76% for the first, 0 to 25% for the second.

`O=C(CCc1ccc(Cl)cc1)Nc1cccc2c(=O)n(CCN3CCOCC3)ccc12` [Compound 1232] and `O=C(Nc1cccc2c(=O)n(CCN3CCOCC3)ccc12)c1cc2ccccc2o1` [Compound 1216] fall in the same range of inhibition at 0.3 µM: 0 to 25% for the first, 0 to 25% for the second.

First: CC(C(=O)Nc1cccc2c(=O)n(C)ccc12)c1ccccc1 (stereo not shown) [Compound 1292]
Second: COc1cccc(CC(=O)Nc2cccc3c(=O)n(C)ccc23)c1 [Compound 1297]
The inhibition at 0.3 µM of the first is lower: 0 to 25% for the first, 26 to 50% for the second.

`Cc1cccc(C(=O)Nc2cccc3c(=O)n(Cc4cccnc4)ccc23)c1C` [Compound 1345] and `O=C(Nc1cccc2c(=O)n(Cc3cccnc3)ccc12)c1cccc2c1OCCO2` [Compound 1363] fall in the same range of inhibition at 0.3 µM: 0 to 25% for the first, 0 to 25% for the second.

`CC(C)(C)Cn1ccc2c(NC(=O)CCCc3ccccc3)cccc2c1=O` [Compound 1263] and `CC(C)(C)Cn1ccc2c(NC(=O)Cc3ccccc3Cl)cccc2c1=O` [Compound 1253] fall in the same range of inhibition at 0.3 µM: 0 to 25% for the first, 0 to 25% for the second.

`CC(C)(C)Cn1ccc2c(NC(=O)Cc3cccc4ccccc34)cccc2c1=O` [Compound 1250] and `CCOc1ccccc1CC(=O)Nc1cccc2c(=O)n(CC(C)(C)C)ccc12` [Compound 1280] fall in the same range of inhibition at 0.3 µM: 0 to 25% for the first, 0 to 25% for the second.

`COc1ccc(CC(=O)Nc2cccc3c(=O)n(CCN4CCOCC4)ccc23)c(OC)c1` [Compound 1230] and `COc1ccc(CC(=O)Nc2cccc3c(=O)n(Cc4cccnc4)ccc23)c(OC)c1` [Compound 1365] fall in the same range of inhibition at 0.3 µM: 0 to 25% for the first, 0 to 25% for the second.

`COc1ccc(CC(=O)Nc2cccc3c(=O)n(Cc4cccnc4)ccc23)cc1` [Compound 1355] and `COCCn1ccc2c(NC(=O)Cc3csc4ccccc34)cccc2c1=O` [Compound 1329] fall in the same range of inhibition at 0.3 µM: 0 to 25% for the first, 0 to 25% for the second.

`CC(C)(C)Cn1ccc2c(NC(=O)c3ccc4c(c3)OCCCO4)cccc2c1=O` [Compound 1273] and `Cc1c(Cl)cccc1C(=O)Nc1cccc2c(=O)n(CC(C)(C)C)ccc12` [Compound 1275] fall in the same range of inhibition at 0.3 µM: 0 to 25% for the first, 0 to 25% for the second.

First: COCCn1ccc2c(NC(=O)c3ccc(C)c(Cl)c3)cccc2c1=O [Compound 1324]
Second: COCCn1ccc2c(NC(=O)c3ccc(CC(C)C)cc3)cccc2c1=O [Compound 1343]
The inhibition at 0.3 µM of the first is higher: 26 to 50% for the first, 0 to 25% for the second.

First: Cn1ccc2c(NC(=O)CCc3cccc(Cl)c3)cccc2c1=O [Compound 1309]
Second: COCCn1ccc2c(NC(=O)c3cc4ccccc4o3)cccc2c1=O [Compound 1320]
The inhibition at 0.3 µM of the first is higher: ≥ 76% for the first, 0 to 25% for the second.

Work on `Cn1ccc2c(NC(=O)[C@@]34C[C@@H]5C[C@@H](C[C@@H]3C5)C4)cccc2c1=O` [Compound 1303] yielded an inhibition at 0.3 µM of 0 to 25%.

same assay, conditions: THP-1; read-out: IL-1β % Inhib.

`COc1cccc(CCC(=O)Nc2cccc3c(=O)n(Cc4ccc(OC(F)(F)F)cc4)ccc23)c1` [Compound 1552] and `COc1ccc(CC(=O)Nc2cccc3c(=O)n(Cc4ccc(OC(F)(F)F)cc4)ccc23)cc1OC` [Compound 1581] fall in the same range of inhibition: 0 to 25% for the first, 0 to 25% for the second.

Compared with `O=C(Nc1cccc2c(=O)n(CCCN3CCCC3=O)ccc12)c1cccc2c1OCCO2` [Compound 1533], `Cc1cccc(C(=O)Nc2cccc3c(=O)n(CCCN4CCCC4=O)ccc23)c1C` [Compound 1508] is lower in inhibition: 26 to 50% for the first, 0 to 25% for the second.

`Cc1ccc(C)c(C(=O)Nc2cccc3c(=O)n(C)ccc23)c1` [Compound 1420] and `Cc1ccccc1C(=O)Nc1cccc2c(=O)n(C)ccc12` [Compound 1419] fall in the same range of inhibition: 0 to 25% for the first, 0 to 25% for the second.

`Cc1ccc(C(=O)Nc2cccc3c(=O)n(Cc4ccc(OC(F)(F)F)cc4)ccc23)cc1Cl` [Compound 1591] and `O=C(Cc1ccccc1F)Nc1cccc2c(=O)n(Cc3ccc(OC(F)(F)F)cc3)ccc12` [Compound 1575] fall in the same range of inhibition: 0 to 25% for the first, 0 to 25% for the second.

First: O=C(Cc1ccccc1F)Nc1cccc2c(=O)n(Cc3cccnc3)ccc12 [Compound 1449]
Second: CCOc1ccc(CC(=O)Nc2cccc3c(=O)n(Cc4cccnc4)ccc23)cc1 [Compound 1450]
The inhibition of the first is higher: 26 to 50% for the first, 0 to 25% for the second.

`CC(C(=O)Nc1cccc2c(=O)n(CC3CCN(C)CC3)ccc12)c1ccccc1` (stereo not shown) [Compound 1466] and `COCCn1ccc2c(NC(=O)C(C)c3ccccc3)cccc2c1=O` (stereo not shown) [Compound 1431] fall in the same range of inhibition: 0 to 25% for the first, 0 to 25% for the second.

`COc1ccc(CC(=O)Nc2cccc3c(=O)n(CCCN4CCCC4=O)ccc23)cc1` [Compound 1522] and `COc1ccc(C(=O)Nc2cccc3c(=O)n(CCCN4CCCC4=O)ccc23)cc1Cl` [Compound 1500] fall in the same range of inhibition: 0 to 25% for the first, 0 to 25% for the second.

`Cc1cccc(C(=O)Nc2cccc3c(=O)n(CC4CCN(C)CC4)ccc23)c1C` [Compound 1461] and `Cc1ccc(Cl)c(C(=O)Nc2cccc3c(=O)n(CC4CCN(C)CC4)ccc23)c1` [Compound 1486] fall in the same range of inhibition: 0 to 25% for the first, 0 to 25% for the second.

`CC(C)(C)c1ccc(C(=O)Nc2cccc3c(=O)n(Cc4cccnc4)ccc23)cc1` [Compound 1446] and `COc1cc(OC)cc(C(=O)Nc2cccc3c(=O)n(CCCN4CCCC4=O)ccc23)c1` [Compound 1512] fall in the same range of inhibition: 0 to 25% for the first, 0 to 25% for the second.

`Cc1ccc(CCC(=O)Nc2cccc3c(=O)n(CCCN4CCCC4=O)ccc23)c(C)c1` [Compound 1546] and `O=C(CCc1ccc2c(c1)OCO2)Nc1cccc2c(=O)n(CCCN3CCCC3=O)ccc12` [Compound 1502] fall in the same range of inhibition: 0 to 25% for the first, 0 to 25% for the second.

same assay, conditions: THP-1 cells, BzATP-stimulated IL-1β release, four parameter logistic fit

Point of comparison: `CC(c1ccccn1)n1ccc2c(NC(=O)Cc3ccc(C(F)(F)F)c(F)c3)cccc2c1=O` (stereo not shown) [Compound 1635], IC50 112 nM. Against it:
- CO[C@@](C(=O)Nc1cccc2c(=O)n(CCN(C)C)ccc12)(c1ccccc1)C(F)(F)F [Compound 1615] — higher, > 1000 nM
- CC(=O)OCCn1ccc2c(NC(=O)CC3CCN(C(=O)OC(C)(C)C)CC3)cccc2c1=O [Compound 1011] — higher, > 1000 nM
